Test results published in PubChem BioAssay AID330 (DTP/NCI, 2004).
Where “and” joins values, the source holds several entries; their conditions need not be identical. Equal values may be shown once. Inconclusive results and toxic doses are left out.

Tested on: P388 leukemia ip, CD2F1 mice, survival T/C
Experiment: NCI In Vivo Anticancer Drug Screen. Data for tumor model P388 Leukemia (intraperitoneal) in CD2F1 (CDF1) mice
Conditions: endpoint: median survival time, higher = longer survival
In short: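 Mice carrying the transplanted tumor received test compound or vehicle. Survival was recorded in each group, and the value is the treated-group measurement divided by that of the vehicle-treated control group.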

[1] = dose: 16.0 mg/kg/injection, schedule: Q01DX009 (ip), vehicle: Klucel (hydroxypropylcellulose) (HPC)
[2] = dose: 60.0 mg/kg/injection, schedule: Q01DX005 (ip), vehicle: saline with Tween-80
[3] = dose: 120.0 mg/kg/injection, schedule: Q01DX005 (ip), vehicle: saline with Tween-80
[4] = dose: 240.0 mg/kg/injection, schedule: Q01DX005 (ip), vehicle: saline with Tween-80
[5] = dose: 50.0 mg/kg/injection, schedule: Q01DX009 (ip), vehicle: saline with Tween-80
[6] = dose: 100.0 mg/kg/injection, schedule: Q01DX009 (ip), vehicle: saline with Tween-80
[7] = dose: 24.0 mg/kg/injection, schedule: Q01DX009 (ip), vehicle: Klucel (hydroxypropylcellulose) (HPC)
[8] = dose: 50.0 mg/kg/injection, schedule: Q01DX005 (ip), vehicle: saline with Tween-80
[9] = dose: 100.0 mg/kg/injection, schedule: Q01DX005 (ip), vehicle: saline with Tween-80
[10] = dose: 25.0 mg/kg/injection, schedule: Q01DX009 (ip), vehicle: Klucel (hydroxypropylcellulose) (HPC)
[11] = dose: 50.0 mg/kg/injection, schedule: Q01DX009 (ip), vehicle: Klucel (hydroxypropylcellulose) (HPC)
[12] = dose: 100.0 mg/kg/injection, schedule: Q01DX009 (ip), vehicle: Klucel (hydroxypropylcellulose) (HPC)
[13] = dose: 200.0 mg/kg/injection, schedule: Q01DX009 (ip), vehicle: Klucel (hydroxypropylcellulose) (HPC)
[14] = dose: 200.0 mg/kg/injection, schedule: Q01DX005 (ip), vehicle: saline with Tween-80

With `Nc1ccc2nc3ccc(N)cc3[n+](-c3ccccc3)c2c1` the T/C (dose: 0.39 mg/kg/injection, schedule: Q04DX003 (ip), vehicle: saline) was 100 % of control, the T/C (dose: 0.78 mg/kg/injection, schedule: Q04DX003 (ip), vehicle: saline) was 95 % of control and the T/C (dose: 1.56 mg/kg/injection, schedule: Q04DX003 (ip), vehicle: saline) was 95 % of control. For the same molecule, the T/C (dose: 3.13 mg/kg/injection, schedule: Q04DX003 (ip), vehicle: saline) was 95 % of control, the T/C (dose: 6.25 mg/kg/injection, schedule: Q04DX003 (ip), vehicle: saline) was 95 % of control and the T/C (dose: 8.0 mg/kg/injection, schedule: Q01DX009 (ip), vehicle: saline with Tween-80) was 154 % of control. For the same molecule, the T/C (dose: 12.0 mg/kg/injection, schedule: Q01DX009 (ip), vehicle: saline with Tween-80) was 154 % of control, the T/C (dose: 12.5 mg/kg/injection, schedule: Q04DX003 (ip), vehicle: saline) was 95 % of control and the T/C (dose: 18.0 mg/kg/injection, schedule: Q01DX009 (ip), vehicle: saline with Tween-80) was 86 % of control.
In the case of `COc1ccc(C2OCC3C2CO[C@H]3c2ccc(OC)c(OC)c2)cc1OC` (mixture of isomers), the T/C (dose: 8.0 mg/kg/injection, schedule: Q01DX009 (ip), vehicle: Klucel (hydroxypropylcellulose) (HPC)) is reported as 90 % of control, the T/C [1] is reported as 97 % of control and the T/C (dose: 32.0 mg/kg/injection, schedule: Q01DX009 (ip), vehicle: Klucel (hydroxypropylcellulose) (HPC)) is reported as 91 % of control. The T/C (dose: 64.0 mg/kg/injection, schedule: Q01DX009 (ip), vehicle: Klucel (hydroxypropylcellulose) (HPC)) was 89 % of control.
`Cc1ccc(NC(=S)C#N)c(C)c1` was tested, and the T/C (dose: 15.0 mg/kg/injection, schedule: Q01DX005 (ip), vehicle: saline with Tween-80) was 102 % of control, the T/C (dose: 30.0 mg/kg/injection, schedule: Q01DX005 (ip), vehicle: saline with Tween-80) was 98 % of control and the T/C [2] was 98 % of control and 106 % of control.
`COc1cc2c(CCNC(C)=O)csc2cc1Cl` was tested, and the T/C [2] was 97 % of control, the T/C [3] was 99 % of control and the T/C [4] was 105 % of control.
For `COc1ccc(/C=C/c2ccc(S(=O)(=O)c3ccc(/C=C/c4ccc(OC)cc4)c(NC(C)=O)c3)cc2NC(C)=O)cc1`, the T/C (dose: 25.0 mg/kg/injection, schedule: Q01DX009 (ip), vehicle: saline with Tween-80) was 97 % of control, the T/C [5] was 97 % of control and the T/C [6] was 92 % of control.
In the case of `Cn1c[n+](C)nn1`, the T/C (dose: 12.5 mg/kg/injection, schedule: Q01DX009 (ip), vehicle: saline) is reported as 91 % of control, the T/C (dose: 25.0 mg/kg/injection, schedule: Q01DX009 (ip), vehicle: saline) is reported as 97 % of control and the T/C (dose: 50.0 mg/kg/injection, schedule: Q01DX009 (ip), vehicle: saline) is reported as 97 % of control.
For `CC(C)(C)C(=O)CC(=O)C(F)(F)C(F)(F)C(F)(F)F.CC(C)(C)C(=O)CC(=O)C(F)(F)C(F)(F)C(F)(F)F.CC(C)(C)C(=O)CC(=O)C(F)(F)C(F)(F)C(F)(F)F.[Ho]`, the T/C [3] was 111 % of control and the T/C [4] was 110 % of control.
`CC[n+]1ccc(Nc2ccc(NC(=O)c3ccc(Nc4cc[n+](CC)c5ccc([N+](=O)[O-])cc45)cc3)cc2)cc1` was tested, and the T/C (dose: 11.0 mg/kg/injection, schedule: Q01DX009 (ip), vehicle: Klucel (hydroxypropylcellulose) (HPC)) was 162 % of control and 200 % of control, the T/C [1] was 215 % of control and the T/C (dose: 16.5 mg/kg/injection, schedule: Q01DX009 (ip), vehicle: Klucel (hydroxypropylcellulose) (HPC)) was 226 % of control. The T/C (dose: 22.0 mg/kg/injection, schedule: Q04DX003 (ip), vehicle: saline) was 175 % of control, the T/C [7] was 200 % of control and the T/C (dose: 25.0 mg/kg/injection, schedule: Q04DX003 (ip), vehicle: saline) was 154 % of control. The T/C (dose: 33.0 mg/kg/injection, schedule: Q04DX003 (ip), vehicle: saline) was 175 % of control and the T/C (dose: 50.0 mg/kg/injection, schedule: Q04DX003 (ip), vehicle: saline) was 180 % of control.
`Cc1cc(C)nc(NC(N)=NCCc2ccccc2)n1` was tested, and the T/C (dose: 12.5 mg/kg/injection, schedule: Q04DX003 (ip), vehicle: saline with Tween-80) was 104 % of control, the T/C (dose: 25.0 mg/kg/injection, schedule: Q04DX003 (ip), vehicle: saline with Tween-80) was 100 % of control and the T/C (dose: 50.0 mg/kg/injection, schedule: Q04DX003 (ip), vehicle: saline with Tween-80) was 100 % of control.
With `Cc1ccc(S(=O)(=O)N/N=C2/CCCC(S(=O)(=O)c3ccc(C)cc3)C2)cc1` (centres undefined) the T/C (dose: 25.0 mg/kg/injection, schedule: Q01DX005 (ip), vehicle: saline with Tween-80) was 111 % of control, the T/C [8] was 98 % of control and the T/C [9] was 93 % of control.
`O=C(O)CCCCCCCCCCNC(=O)CI` was tested, and the T/C (dose: 6.25 mg/kg/injection, schedule: Q01DX009 (ip), vehicle: Klucel (hydroxypropylcellulose) (HPC)) was 107 % of control, the T/C (dose: 12.5 mg/kg/injection, schedule: Q01DX009 (ip), vehicle: Klucel (hydroxypropylcellulose) (HPC)) was 119 % of control and the T/C [10] was 119 % of control.
With `CC12CC3OC(=O)C1COC14OC5(C2C1=O)C(O)(CCC1C4CC(O)C2(O)CC=CC(=O)C12C)C(=O)OC35C` (centres undefined) the T/C (dose: 12.0 mg/kg/injection, schedule: Q01DX009 (ip), vehicle: Klucel (hydroxypropylcellulose) (HPC)) was 94 % of control, the T/C [7] was 110 % of control and the T/C (dose: 48.0 mg/kg/injection, schedule: Q01DX009 (ip), vehicle: Klucel (hydroxypropylcellulose) (HPC)) was 109 % of control.
For `Cc1cccc(C(C)C)c1NC(=O)C(=O)C(C#N)c1ccc(CC#N)cc1` (centres undefined), the T/C [2] was 99 % of control and the T/C [3] was 98 % of control.
For `CC1C(c2ccccc2)OCN1C` (centres undefined), the T/C (dose: 12.5 mg/kg/injection, schedule: Q01DX005 (ip), vehicle: saline) was 110 % of control and 88 % of control, the T/C (dose: 25.0 mg/kg/injection, schedule: Q01DX005 (ip), vehicle: saline) was 100 % of control and 116 % of control and the T/C (dose: 50.0 mg/kg/injection, schedule: Q01DX005 (ip), vehicle: saline) was 110 % of control [middle of 5 runs]. For the same molecule, the T/C (dose: 100.0 mg/kg/injection, schedule: Q01DX005 (ip), vehicle: saline) was 118 % of control and 109 % of control and the T/C (dose: 200.0 mg/kg/injection, schedule: Q01DX005 (ip), vehicle: saline) was 116 % of control.
In the case of `CCN1Cc2c(/C=C/c3ccccc3)nc3ccc(OC)cc3c2N(c2cccc(Cl)c2)C1`, the T/C [10] is reported as 103 % of control, the T/C [11] is reported as 94 % of control and the T/C [12] is reported as 102 % of control. The T/C [13] was 98 % of control.
`CSc1cccc(NC(=O)OC2CCCCCCCCCCC2)c1` was tested, and the T/C [5] was 89 % of control, the T/C [6] was 89 % of control and the T/C (dose: 200.0 mg/kg/injection, schedule: Q01DX009 (ip), vehicle: saline with Tween-80) was 92 % of control.
`O=C1OCCC1C(=O)C(O)(C(F)(F)F)C(F)(F)F` (centres undefined) was tested, and the T/C (dose: 50.0 mg/kg/injection, schedule: Q01DX001 (ip), vehicle: other) was 100 % of control, the T/C (dose: 100.0 mg/kg/injection, schedule: Q01DX001 (ip), vehicle: other) was 95 % of control and the T/C (dose: 200.0 mg/kg/injection, schedule: Q01DX001 (ip), vehicle: other) was 91 % of control.
For `CCOP(=S)(N/N=C(\C)c1ccc(C)s1)OCC`, the T/C (dose: 50.0 mg/kg/injection, schedule: Q01DX005 (ip), vehicle: Klucel (hydroxypropylcellulose) (HPC)) was 104 % of control, the T/C (dose: 100.0 mg/kg/injection, schedule: Q01DX005 (ip), vehicle: Klucel (hydroxypropylcellulose) (HPC)) was 113 % of control and the T/C (dose: 200.0 mg/kg/injection, schedule: Q01DX005 (ip), vehicle: Klucel (hydroxypropylcellulose) (HPC)) was 114 % of control.
In the case of `COc1ccc(C2(O)CC3CCC(C2)N3C)cc1` (centres undefined), the T/C [8] is reported as 93 % of control, the T/C [9] is reported as 100 % of control and the T/C [14] is reported as 97 % of control.
In the case of `COc1ccc(CSC(=S)Nc2ccc(Cl)c([N+](=O)[O-])c2)cc1`, the T/C (dose: 50.0 mg/kg/injection, schedule: Q01DX009 (ip), vehicle: suspension in saline) is reported as 108 % of control, the T/C (dose: 100.0 mg/kg/injection, schedule: Q01DX009 (ip), vehicle: suspension in saline) is reported as 99 % of control and the T/C (dose: 200.0 mg/kg/injection, schedule: Q01DX009 (ip), vehicle: suspension in saline) is reported as 99 % of control.
With `C(=C/c1nc2ccccc2nc1CCN1CCCCC1)/c1ccc2c(c1)OCO2` the T/C [8] was 100 % of control, the T/C [9] was 102 % of control and the T/C [14] was 102 % of control.
With `Nc1cc(C(CC(=O)NO)NO)ccc1[N+](=O)[O-]` (centres undefined) the T/C [11] was 94 % of control, the T/C [12] was 110 % of control and the T/C [13] was 102 % of control.
